These molecules were tested on Phosphorylation of STAT6 in human PBMC (CD19+ B cells) (assay: Phosphorylated STAT6 (pSTAT6) flow cytometry assay in human PBMC, IL-4 stimulated). Conditions: compound 1 hour, 1 ng/ml IL-4 for 15 minutes, read-out: STAT6 IL4 pSTAT6 assay in PBMC: Average IC50.
Format: cell-based
Protocol: Example 2. Phosphorylated STAT6 (pSTAT6) Flow Cytometry Assay in Human PBMC
Phosphorylation of STAT6 in human PBMC was quantitatively measured using flow cytometry technology. Human PBMC were seeded in 96-well plates with a density of 0.3 to 0.5 million cells per well in 100 μl fresh media. Compounds were then added to the assay plates with a final top concentration of up to 30 μM in a 1:3 dilution series with total of 9 doses. The assay plates were incubated for 1 hour at 37° C. under 5% CO2. The cells were then stimulated with 1 ng/ml of IL-4 (R&D Systems, Cat #6507-IL) for 15 minutes, followed by fixation for 30 minutes at 4° C. Cells were spun down at 350 g for 5 minutes. The supernatant was removed and cells were washed once with FACS buffer. Cells were permeabilized with 90% MeOH/H2O for 30 minutes at 4° C., followed by one wash with FACS buffer. Non-specific binding were blocked with human Fc for 1 hour at 4 C, followed by one wash with FACS buffer. AF488 conjugated pSTAT6 antibody (BD Biosciences, Cat #612600, 1:100 dilution) and PE conjugated CD19 antibody (BD Biosciences, Cat #341103, 1:50 dilution) diluted in 100 μl FACS buffer was added to each well with overnight incubation at 4° C. Cells were then washed once with FACS buffer and resuspended in 200 μl of FACS buffer for flow cytometry to quantify pSTAT6 in CD19+ B cells. The data was analyzed by GraphPad Prism and the dose dependent pSTAT6 inhibition was fit using the four-parameter inhibitor vs. response nonlinear regression.
`CN(C)C(=O)c1cc2cc(C3=CCCN(C(=O)CCn4ccnn4)C3)cc(CN3CC(N)C3)c2o1` [Example I-166] was tested, and the IC50 was > 100 µM.
In the case of `CN(C)C(=O)c1cc2ccc(C3=CCCN(C(=O)CN(C)S(=O)(=O)c4ccccc4)C3)cc2[nH]1` [Example I-75], the IC50 is reported as 10 to 100 µM.
For `CCCN(C)C(=O)c1cc2cc(C3=CCCN(C(=O)CCn4ccnn4)C3)ccc2o1` [Example I-235], the IC50 was > 100 µM.
With `CN(C)C(=O)c1cc2ccc(C3=CCCN(C(=O)C4(C#N)CC4)C3)cc2[nH]1` [Example I-29] the IC50 was 10 to 100 µM.
For `CN(C)C(=O)c1cc2cc(C3=CCCN(C(=O)CCc4ccccn4)C3)ccc2[nH]1` [Example I-200], the IC50 was > 100 µM.
With `CN(C)C(=O)c1cc2c(-c3ccc(O)cc3)cc(C3=CCCN(C(=O)CCn4ccnn4)C3)cc2[nH]1` [Example I-22] the IC50 was 0.1 to 1 µM.
`CN(C)C(=O)c1cc2cc(C3=CCCN(C(=O)Cc4cnccn4)C3)ccc2o1` [Example I-246] was tested, and the IC50 was > 100 µM.
In the case of `CN(C)C(=O)c1cc2ccc(C3=CCCN(C(=O)CCn4ccnn4)C3)nc2[nH]1` [Example I-196], the IC50 is reported as 10 to 100 µM.
In the case of `CN(C)C(=O)c1cc2ccc(C3=CCCN(C(=O)CC(C)(C)NCc4ccccc4)C3)cc2[nH]1` [Example I-135], the IC50 is reported as > 100 µM.
In the case of `CN(C)C(=O)c1cc2ccc(C3=CCCN(C(=O)C4CC4c4ccn(C)n4)C3)cc2[nH]1` (stereo not drawn) [Example I-321], the IC50 is reported as 10 to 100 µM.
With `O=C(CCn1ccnn1)N1CCC=C(c2ccc3occc3c2)C1` [Example I-278] the IC50 was > 100 µM.
Work on `CN(C)C(=O)c1cc2ccc(C3=CCCN(C(=O)[C@H]4Cc5ccccc5CN4)C3)cc2[nH]1` [Example I-59] yielded an IC50 of 1 to 10 µM.
Molecule `Cc1ccccc1OCc1ccccc1C(=O)N1CCC=C(c2ccc3cc(C(=O)N(C)C)[nH]c3c2)C1` [Example I-106] has an IC50 of 1 to 10 µM.
For `CN(C)C(=O)c1cc2ccc(C3=CCCN(C(=O)CCc4ccno4)C3)cc2[nH]1` [Example I-19], the IC50 was > 100 µM.
`CN(C)C(=O)c1cc2cc(C3=CCCN(C(=O)C4Cc5c(cccc5-n5cccn5)CN4C=O)C3)ccc2o1` (stereo not drawn) [Example I-172] was tested, and the IC50 was > 100 µM.
With `CN(C)C(=O)c1cc2ccc(C3=CCCN(C(=O)CCc4cccc(C#N)c4)C3)cc2[nH]1` [Example I-63] the IC50 was > 100 µM.
In the case of `Cc1cc(CC(=O)N2CCC=C(c3ccc4cc(C(=O)N(C)C)[nH]c4c3)C2)on1` [Example I-133], the IC50 is reported as > 100 µM.
For `CN(C)C(=O)c1cc2ccc(C3=CCCN(C(=O)c4ccc(N5CCOCC5)c(F)c4)C3)cc2[nH]1` [Example I-158], the IC50 was > 100 µM.
In the case of `CNS(=O)(=O)c1cccc(C(=O)N2CCC=C(c3ccc4cc(C(=O)N(C)C)[nH]c4c3)C2)c1` [Example I-70], the IC50 is reported as > 100 µM.
In the case of `CN(C)C(=O)c1nc2cc(C3=CCCN(C(=O)CCn4ccnn4)C3)ccc2o1` [Example I-214], the IC50 is reported as > 100 µM.
`O=C(CCn1ccnn1)N1CCC=C(c2ccc3cc(C(=O)N4CCC4)[nH]c3c2)C1` [Example I-125] was tested, and the IC50 was > 100 µM.
In the case of `CN(C)C(=O)c1cc2cc(C3=CCCN(C(=O)CCc4cccnn4)C3)ccc2o1` [Example I-220], the IC50 is reported as > 100 µM.
Molecule `CN(C)C(=O)c1cc2ccc(C3=CCCN(C(=O)[C@@H]4C[C@H]4c4ccc(Br)cc4)C3)cc2[nH]1` [Example I-56] has an IC50 of 10 to 100 µM.
`CN(C)C(=O)c1cc2cc(C3=CCCN(C(=O)CCc4nccc5ccccc45)C3)ccc2o1` [Example I-206] was tested, and the IC50 was > 100 µM.
In the case of `C#Cc1cc(C2=CCCN(C(=O)CCn3ccnn3)C2)cc2cc(C(=O)N(C)C)oc12` [Example I-23], the IC50 is reported as > 100 µM.
Molecule `CNc1ccc(-c2cc(C3=CCCN(C(=O)CCn4ccnn4)C3)cc3[nH]c(C(=O)N(C)C)cc23)nc1` [Example I-116] has an IC50 of 0.1 to 1 µM.
`CN(C)C(=O)c1cc2ccc(C3=CCCN(C(=O)OCn4ccnn4)C3)cc2[nH]1` [Example I-120] was tested, and the IC50 was > 100 µM.
With `CN(C)C(=O)c1cc2ccc(C3=CCCN(C(=O)CCc4ccn(C)n4)C3)cc2[nH]1` [Example I-10] the IC50 was > 100 µM.
For `CN(C)C(=O)c1cc2cc(C3=CCCN(C(=O)CCc4cn5ccccc5n4)C3)ccc2o1` [Example I-251], the IC50 was > 100 µM.
In the case of `CN(C)C(=O)c1cc2cc(C3=CCCN(C(=O)Cc4nc5ccccc5s4)C3)ccc2o1` [Example I-221], the IC50 is reported as > 100 µM.

Reference: patent US20250214977A1, “STAT6 INHIBITORS AND USES THEREOF” (Kymera Therapeutics, Inc., priority 2024, published 2025)
